{
  "source": "patent US20120128821A1",
  "about": "“PROBIOTIC MICROORGANISMS ISOLATED FROM DONKEY MILK” (EUROLACTIS GROUP SA, priority 2009, published 2012)",
  "assay": "Production of organic acids after fermentation in donkey milk (HPLC)",
  "conditions": "absolute area, produced during fermentation, grown in donkey milk",
  "protocol": "The production of organic acids after fermentation was determined by high-performance liquid chromatography of filtered supernatants (Vulevic, Rastall & Gibson, 2004; Nazzaro et al. 2009), using a Gold System apparatus equipped with an ultraviolet detector (Beckman, CA, USA). Samples were loaded onto a pre-packed Aminex HPX-87 column (300 7.8 mm, Bio-Rad, Hercules, Calif., USA) and eluted with […] sulphuric acid. Total running time was 40 min; flow rate was 0.6 ml/min; injection volume was 20 μl; and detection wavelength was 210 nm.\nIn the following tables are reported the amount of butyric acid and citric acid produced during fermentation by strains of the invention and some strains of reference, grown in donkey milk. The data are expressed in terms of absolute area (mm^2): […]",
  "data": [
    {"substance": "Lactobacillus acidophilus", "values": [
      {"measurement": "Amount of butyric acid", "value": 26.21, "unit": "mm^2"},
      {"measurement": "Amount of citric acid", "value": 51.37, "unit": "mm^2"}
    ]}
  ]
}
